For eleven compounds, IC50 and EC50 results are on record in patent US20250011318A1 (ARCUS BIOSCIENCES, INC., priority 2023, published 2025).

For one assay, the target named is T1, Cbl-b (Homo sapiens, UniProt Q13191).
T1 construct: biotin (biotinylated)
In words: Cbl-b probe displacement HTRF binding assay. Conditions: 0.4 nM biotinylated Cbl-b, 150 nM BODIPY probe. In outline: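 Probe-displacement HTRF in Hepes/NaCl/Triton/TCEP/BSA buffer at room temperature: compound dilutions (to 10 μM) incubated 60 min with 0.4 nM biotin-Cbl-b, 150 nM BODIPY probe added for 15 min, Tb-streptavidin read. Signal normalised to DMSO and no-protein controls; IC50 from four-parameter curve.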

The test system of a further assay is Jurkat cells. In words: IL-2 secretion assay in CD3/CD28-activated Jurkat cells (AlphaLISA). Conditions: Homo sapiens, CD3/CD28 T Cell Activator, 24 h, IL-2 AlphaLISA. The format is cell-based, human. The essentials: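 IL-2 release quantified by AlphaLISA in supernatants after 24 h CD3/CD28 activation at 37° C. Compounds, 10 μM to 300 pM final in 1:2 steps, were added to 50,000 Jurkat cells/well 1 h before activation; 4-parameter fit gave EC50.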

T1 sequence (Q13191 whole entry, species assumed): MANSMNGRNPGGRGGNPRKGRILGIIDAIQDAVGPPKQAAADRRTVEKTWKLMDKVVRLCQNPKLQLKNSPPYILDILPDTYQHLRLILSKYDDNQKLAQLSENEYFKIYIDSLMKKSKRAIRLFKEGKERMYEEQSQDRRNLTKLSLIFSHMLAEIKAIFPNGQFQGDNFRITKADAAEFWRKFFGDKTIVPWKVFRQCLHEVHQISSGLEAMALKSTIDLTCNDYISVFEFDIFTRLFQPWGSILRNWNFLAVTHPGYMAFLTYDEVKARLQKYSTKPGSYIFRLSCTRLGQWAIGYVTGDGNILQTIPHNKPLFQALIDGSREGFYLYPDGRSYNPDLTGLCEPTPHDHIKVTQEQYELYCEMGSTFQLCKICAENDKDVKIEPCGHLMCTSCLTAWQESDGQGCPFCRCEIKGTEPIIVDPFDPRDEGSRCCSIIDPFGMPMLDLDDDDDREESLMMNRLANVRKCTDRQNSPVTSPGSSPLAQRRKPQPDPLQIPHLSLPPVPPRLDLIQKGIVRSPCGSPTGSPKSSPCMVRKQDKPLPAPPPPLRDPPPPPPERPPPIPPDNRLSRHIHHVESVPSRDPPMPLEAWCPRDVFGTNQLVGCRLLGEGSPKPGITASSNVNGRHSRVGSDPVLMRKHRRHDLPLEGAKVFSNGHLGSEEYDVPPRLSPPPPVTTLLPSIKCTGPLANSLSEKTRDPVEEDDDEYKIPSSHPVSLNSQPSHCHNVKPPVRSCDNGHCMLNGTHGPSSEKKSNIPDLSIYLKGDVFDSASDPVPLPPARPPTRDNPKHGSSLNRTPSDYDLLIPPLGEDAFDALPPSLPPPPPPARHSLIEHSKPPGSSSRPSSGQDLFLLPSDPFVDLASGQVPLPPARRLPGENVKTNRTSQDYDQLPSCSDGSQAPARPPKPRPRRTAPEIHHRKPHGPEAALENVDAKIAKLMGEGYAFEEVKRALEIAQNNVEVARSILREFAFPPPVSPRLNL

As to `N#Cc1c[nH]c2c(=O)n(-c3cc(-c4ccc(F)cc4-c4nncn4C(F)F)cc(C4CC4)n3)cc(C(F)(F)F)c12` [Example 134, 6-[6-cyclopropyl-4-[2-[4-(difluoromethyl)-1,2,4-triazol-3-yl]-4-fluorophenyl]pyridin-2-yl]-7-oxo-4-(trifluoromethyl)-1H-pyrrolo[2,3-c]pyridine-3-carbonitrile], the half-maximal inhibitory concentration (IC50) (as a rule, the concentration at which inhibition is half-maximal) on Cbl-b is below 100 nM. For the same compound, in the assay with Jurkat cells, the concentration giving a half-maximal response (EC50) (commonly the midpoint of the concentration-response curve) is below 100 nM.
As for `Cn1cnnc1-c1cc(F)ccc1-c1cc(C2CC2)nc(-n2cc(C(F)(F)F)c3c(C#N)c[nH]c3c2=O)c1` [Example 135, 6-[6-cyclopropyl-4-[4-fluoro-2-(4-methyl-1,2,4-triazol-3-yl)phenyl]pyridin-2-yl]-7-oxo-4-(trifluoromethyl)-1H-pyrrolo[2,3-c]pyridine-3-carbonitrile], the 50% inhibitory concentration (IC50) on Cbl-b was below 100 nM. In addition, in the assay on Jurkat cells, the EC50 is below 100 nM.
`Cn1ccnc1-c1cc(F)ccc1-c1cc(C2CC2)nc(-n2cc(C(F)(F)F)c3c(C#N)c[nH]c3c2=O)c1` [Example 136, 6-{6-cyclopropyl-4-[4-fluoro-2-(1-methyl-2-imidazolyl)phenyl]-2-pyridyl}-7-oxo-4-(trifluoromethyl)-1,6-dihydro-1,6-diaza-3-indenecarbonitrile] showed an IC50 at Cbl-b below 100 nM. For the same compound, the EC50 in the assay with Jurkat cells is below 100 nM.
Regarding `Cn1cnnc1-c1cc(F)ccc1-c1cc(C2CC2)nc(-n2cc(C(F)(F)F)c3cc(CO)[nH]c3c2=O)c1` [Example 137, 6-[6-cyclopropyl-4-[4-fluoro-2-(4-methyl-1,2,4-triazol-3-yl)phenyl]pyridin-2-yl]-2-(hydroxymethyl)-4-(trifluoromethyl)-1H-pyrrolo[2,3-c]pyridin-7-one], the IC50 at Cbl-b was below 100 nM. Besides, in the assay with Jurkat cells, the 50% effective concentration (EC50) is below 100 nM.
As for `COCCNCc1cc2ncn(-c3cc(-c4ccc(F)cc4-n4nncc4CF)cc(C4CC4)n3)c(=O)c2[nH]1` [Example 138, 3-[6-cyclopropyl-4-[4-fluoro-2-[5-(fluoromethyl)triazol-1-yl]phenyl]pyridin-2-yl]-6-[(2-methoxyethylamino)methyl]-5H-pyrrolo[3,2-d]pyrimidin-4-one], the half-inhibitory concentration (IC50) at Cbl-b was below 100 nM. Also, the EC50 in the assay with Jurkat cells was below 100 nM.
As to `CO[C@@H](C)CNCc1cc2ncn(-c3cc(-c4ccc(C#N)cc4-n4nncc4CF)cc(C4CC4)n3)c(=O)c2[nH]1` [Example 139, 4-[2-(2-{[(S)-2-methoxypropylamino]methyl}-7-oxo-1,6-dihydro-1,4,6-triaza-6-indenyl)-6-cyclopropyl-4-pyridyl]-3-[5-(fluoromethyl)-1H-1,2,3-triazol-1-yl]benzonitrile], on Cbl-b, the 50% inhibitory concentration (IC50) is below 100 nM. In addition, the EC50 with Jurkat cells was below 100 nM.
At Cbl-b, `Cc1ccnn1-c1cc(F)ccc1-c1cc(C2CC2)nc(-n2cc(C3CC3)c3cc(CNC4(C)CCC4)[nH]c3c2=O)c1` [Example 140, 4-cyclopropyl-6-[6-cyclopropyl-4-[4-fluoro-2-(5-methylpyrazol-1-yl)phenyl]pyridin-2-yl]-2-[[(1-methylcyclobutyl)amino]methyl]-1H-pyrrolo[2,3-c]pyridin-7-one] had an IC50 below 100 nM. The compound also returned an EC50 in the assay with Jurkat cells of 100 to 1000 nM.
The matching figures for `Cn1cnnc1-c1cc(F)ccc1-c1cc(C2CC2)nc(-n2cc(C(F)(F)F)c3cc[nH]c3c2=O)c1` [Example 141, 6-[6-cyclopropyl-4-[4-fluoro-2-(4-methyl-1,2,4-triazol-3-yl)phenyl]pyridin-2-yl]-4-(trifluoromethyl)-1H-pyrrolo[2,3-c]pyridin-7-one]: below 100 nM and below 100 nM.
Taken in the same sequence, the figures for `COCCNCc1cc2c(C(F)(F)F)cn(-c3cc(-c4ccc(F)cc4-n4nccc4C(F)(F)F)cc(C4CC4)n3)c(=O)c2[nH]1` [Example 142, 6-[6-cyclopropyl-4-[4-fluoro-2-[5-(trifluoromethyl)pyrazol-1-yl]phenyl]pyridin-2-yl]-2-[(2-methoxyethylamino)methyl]-4-(trifluoromethyl)-1H-pyrrolo[2,3-c]pyridin-7-one] were below 100 nM and 100 to 1000 nM.
Taken in the same sequence, the figures for `Cc1cncnc1-c1cc(F)ccc1-c1cc(C2CC2)nc(N2Cc3ccc(CN4CCC[C@H](C)C4)cc3C2=O)c1` [Example 143, 2-[6-Cyclopropyl-4-[4-fluoro-2-(5-methylpyrimidin-4-yl)phenyl]pyridin-2-yl]-6-[[(3S)-3-methylpiperidin-1-yl]methyl]-3H-isoindol-1-one] were below 100 nM and 1000 to 5000 nM.
Regarding `Cn1cnnc1-c1cc(F)ccc1-c1cc(C2CC2)nc(-n2cc(C#N)c3c4c([nH]c3c2=O)CCCC4)c1` [Example 144, 2-{6-Cyclopropyl-4-[4-fluoro-2-(4-methyl-4H-1,2,4-triazol-3-yl)phenyl]-2-pyridyl}-1-oxo-2,5,6,7,8,9-hexahydroβ-carboline-4-carbonitrile], the IC50 on Cbl-b was below 100 nM. Also, the 50% effective concentration (EC50) in the assay with Jurkat cells was below 100 nM.
